Experiments:
mPGES-1 = target: T1, mPGES-1 (Homo sapiens, UniProt O14684); test: Cell-free mPGES-1 activity assay (PGE2 biosynthesis); assay type: biochemical; details: 10 μM, percentage of control (100%), read-out: mPGES-1 residual activity at 10 μM (%)
T1 construct: endogenous in cells; host or cells: A549 cells stimulated with IL-1β; microsomal fraction
T1 sequence (O14684 1-152): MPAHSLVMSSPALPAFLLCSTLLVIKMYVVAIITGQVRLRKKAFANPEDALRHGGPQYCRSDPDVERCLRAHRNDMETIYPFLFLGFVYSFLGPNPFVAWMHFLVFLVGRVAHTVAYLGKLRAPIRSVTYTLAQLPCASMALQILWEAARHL
From the text: (Table 1). […] From the structural point of view, the biological affinities of compounds 3 and 7 (Figure 2A and C) could be positively affected by the 2-bromobenzoyl substituent able to accommodate in a deep binding pocket on the mPGES-1 surface. This moiety interacts by van der Waals contacts with amino acids of the cytoplasmic part and establishes π-stacking with Phe44ChainC and His53ChainC hydrogen bonds with Ser127, and a halogen bond between the bromine atom and the side chain of Aps49ChainC. Furthermore, the 3-phenylphenol and 2-aminobiphenyl moieties of 3 and 7 (Figure 2A and C), respectively, are able to establish a peculiar π-stacking with Tyr130ChainA and a hydrogen bond with Gln134ChainA. […]
mM glutathione, and 250 mM sucrose) and the protein concentration was defined. Potassium phosphate buffer (0.1 M, pH = 7.4) plus glutathione (2.5 mM) was added to dilute microsomes, which were then seeded in a 96-well plate. […]
preincubated for 15 min on ice. MK886 (10 µM) and MD-52 (1 µM) were used as reference drugs.
The reactions started by adding 20 µM of PGH2, and 1 min later, 100 µl of a solution containing FeCl3 (40 mM), citric acid (80 mM), and 11β-PGE 2 (10 µM) were added for stopping the conversion of PGH2. After the extraction of PGE2 and 11β-PGE 2 (internal stardard) by solid-phase extraction, […]

[1] = test system: zymosan-induced peritonitis; test: Zymosan-induced peritonitis in mice; assay type: in vivo, mouse; details: 3 mg/kg i.p.
Experimental: Figure 5 Effect of compound 3 in zymosan-induced peritonitis in mice. Mice were randomly divided into different experimental groups: control group (Ctrl), model group (zymosan + vehicle compound 3), zymosan + compound 3 (i.p. injection 30 min after i.p. injection of zymosan) group, and zymosan + dexamethasone (i.p. injection 30 min after i.p. injection of zymosan) group. At (A) 4 and (B) 24 h after injection, peritoneal exudate from each mouse was recovered, and the total cell number was evaluated. Results are expressed as mean ± SD. For statistical analysis see SI.
Figure 6 Analysis of cytokine levels collected in the peritoneal exudate of mice from different experimental groups: (A, B) IL-1β, (C, D) IL-6, (E, F) PGE2, and (G, H) IL-10. Results (normalized to exudate levels) are expressed as mean ± SD. For statistical analysis see SI.
Induction of peritonitis in mice and Enzyme-Linked Immunosorbent Assay (ELISA)
To examine the anti-inflammatory action of compound 3, we next evaluated the biological activity of
compound 3 in a mouse model of zymosan-induced peritonitis, as as previously described. 13,14 26, 27
To this aim, mice were randomly divided into different experimental groups: control group (Ctrl),
model group (zymosan + vehicle compound 3), zymosan + compound 3 (0.1, 1, and 10 mg/kg), and
zymosan + dexamethasone (3 mg/kg) group. Animals received the selected compound or
dexamethasone intraperitoneally (i.p.) 30 min after i.p. injection of zymosan (500 mg/kg)26, 27. Ctrl
and model groups received an equal volume of vehicle (PBS or DMSO/saline 1:3, respectively).
Peritoneal exudates were collected at selected time points (4 and 24 h) by washing the cavity with 2
mL of PBS. Then cell number of lavage fluids was determined by TC10 automated cell counter (Bio-
Rad, Milan, Italy) using disposable slides. The remaining lavage fluids were centrifuged at 3000 rpm
for 20 min at 4 °C, and supernatants were frozen at −80 °C for further ELISA analysis according to
the manufacturer instructions (eBioscience Co., San Diego, CA, USA)10 23 of IL-1β, IL-6, PGE 2 and
IL-10 following the procedure previously described15-17 28-30. Dexamethasone and zymosan A were
purchased from Sigma-Aldrich (Milan, Italy). DMSO was purchased from Merck (Italy). Unless
otherwise stated, all the other reagents were purchased from Carlo Erba (Milan, Italy).
The data and statistical analysis in this study comply with the international recommendations on
experimental design and analysis in preclinical pharmacology18-2031-33. The results obtained were
expressed as the mean ± S.D. or as mean ± S.E.M., as reported in detail in the figure legends. IC 50
values were calculated by nonlinear regression using GraphPad Prism Version 8.0 software (San
Diego, CA) one site binding competition. Statistical evaluation of the data was performed by one-

remaining activity at 10 µM (mPGES-1) [%]	Structure (SMILES)	further results
> 50	Nc1ccccc1-c1ccc(-c2nnc(NC(=O)c3cc(F)ccc3F)s2)cc1 [compound 8]	–
> 25	Cc1ccoc1C(=O)Nc1nnc(-c2ccc(-c3ccccc3N)cc2)s1 [compound 5]	–
> 50	Cc1cc(C(=O)Nc2nnc(-c3ccc(-c4cccc(O)c4)cc3)s2)cc(Cl)n1 [compound 2]	–
> 50	Cc1ccoc1C(=O)Nc1nnc(-c2ccc(-c3cccc(O)c3)cc2)s1 [compound 1]	–
> 50	O=C(Nc1nnc(-c2ccc(-c3cccc(O)c3)cc2)s1)c1cc(F)ccc1F [compound 4]	–
–	C[C@@H]1C[C@H]2[C@@H]3CCC4=CC(=O)C=C[C@]4(C)[C@@]3(F)[C@@H](O)C[C@]2(C)[C@@]1(O)C(=O)CO [dexamethasone, reference compound]	IL-1β level in peritoneal exudate ([1]; 4 and 24 h): more prominent effect; IL-6 level in peritoneal exudate ([1]; 4 and 24 h): more prominent effect; IL-10 level in peritoneal exudate ([1]; 4 and 24 h): more prominent effect; PGE2 level in peritoneal exudate ([1]; 4 and 24 h): more prominent effect; leukocyte numbers in the peritoneal cavity ([1]; 4 h (P ≤ 0.005) and 24 h (P ≤ 0.01)): significantly reduced

Source: article PMC9841589, “Identification of 2-Aminoacyl-1,3,4-thiadiazoles as Prostaglandin E2 and Leukotriene Biosynthesis Inhibitors” (ACS Medicinal Chemistry Letters, 2022)
